Bounds are passed on as bounds.

Assay [1] concerns the target T1, purified recombinant 11β-HSD1 (Homo sapiens, UniProt P28845).
T1 construct: made in house; host or cells: E. coli
The experiment in a line: Biological Test Example 1: inhibition of purified 11β-HSD1, Scintillation Proximity Assay. It counts as biochemical. To be noted: purified recombinant 11β-HSD1 (expressed in E. coli), SPA; read-out: Biological Test Example 1 IC50 Range. How it is done: The inhibition of purified 11β-HSD1 by compounds of Formula I is measured using a Scintillation Proximity Assay. […] The reaction is then incubated for 90 minutes, and stopped by adding 50 μl of SPA bead mix (18-β-glycyrrhetinic acid, 10 μM final, 5 mg/ml protein A coated YSi SPA beads, and 1 ug/ml α-cortisol antibody (East Coast Biologics)). The plate is shaken for 120 minutes, and the radioactivity corresponding to ^3H cortisol is measured on a Wallac Microbeta.
In general terms: Scintillation proximity formats need no separation of bound from free tracer.

Assay [2] has as its target T2, human 11β-HSD1 (Homo sapiens, UniProt P28845). To be noted: at 100 nm.
Experimental: (§1) All reactions are carried out at room temperature in 96 well clear flexible PET Microbeta plates (PerkinElmer). […] The reaction is stopped by adding 50 μl of the SPA beads suspension containing 10 μM 18β-glycyrrhetinic acid, 5 mg/ml protein A coated YSi SPA beads (GE Healthcare) and 3.3 μg/ml of anti-cortisol antibody (East Coast Biologics) in Superblock buffer (Bio-Rad). The plates are then shaken for 120 minutes at room temperature, and the SPA signal corresponding to [^3H]cortisol is measured on a Microbeta plate reader.
In assay [3] the target is T2, human 11β-HSD1. The experiment in a line: biochemical. To be noted: Biological Test Example 2 IC50 Range, microsomes from CHO cells overexpressing human 11β-HSD1, SPA.
Experimental: as §1

T2 sequence (P28845 whole entry): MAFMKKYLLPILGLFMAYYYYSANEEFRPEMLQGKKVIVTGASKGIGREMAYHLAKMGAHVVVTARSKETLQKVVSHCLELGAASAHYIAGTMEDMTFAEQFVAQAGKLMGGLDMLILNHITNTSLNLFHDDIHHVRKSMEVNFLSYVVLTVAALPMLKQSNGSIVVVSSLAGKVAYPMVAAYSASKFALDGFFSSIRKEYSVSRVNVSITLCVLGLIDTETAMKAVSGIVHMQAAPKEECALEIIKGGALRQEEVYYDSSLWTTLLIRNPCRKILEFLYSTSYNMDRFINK
T1 sequence (P28845 whole entry, species assumed): as the sequence (P28845 whole entry) above

One may read the IC50 as the concentration at which inhibition is half-maximal. Turning to `CN(C(=O)OC(C)(C)C)C1CCN(C(=O)NC2C3CC4CC(C3)CC2C4)C1` (stereo not drawn) [Example 55, tert-butyl 1-(2-adamantylcarbamoyl)pyrrolidin-3-yl(methyl)carbamate], the IC50 in assay [1] is below 100 nM. With `CC(C)(C)OC(=O)NCC1CN(C(=O)NC2C3CC4CC(C3)CC2C4)C1` (stereo not drawn) [Example 52, tert-butyl (1-(2-adamantylcarbamoyl)azetidin-3-yl)methylcarbamate], in assay [1], the IC50 was below 100 nM. The same measure, in the same setting: the result for `CC(C)(C)OC(=O)N[C@@H]1CCCN(C(=O)NC2C3CC4CC(C3)CC2C4)C1` (stereo partly drawn) [Example 56, (R)-tert-butyl 1-(2-adamantylcarbamoyl)piperidin-3-ylcarbamate] reads below 100 nM; that for `CC(C)(C)OC(=O)N1CCC2CN(C(=O)OC3C4CC5CC(C4)CC3C5)CC21` (racemic) [Example 11, (±)-1-tert-butyl 5-(2-adamantyl) hexahydropyrrolo[3,4-b]pyrrole-1,5-dicarboxylate], below 100 nM; that for `CC(C)(C)OC(=O)NC[C@@H]1CCN(C(=O)NC2C3CC4CC(C3)CC2C4)C1` (stereo partly drawn) [Example 54, (S)-tert-butyl (1-(2-adamantylcarbamoyl)pyrrolidin-3-yl)methylcarbamate], below 100 nM.

With `CC(C)(C)OC(=O)NC1CCN(C(=O)NC2C3CC4CC(C3)CC2C4)CC1` (stereo not drawn) [Example 53, tert-butyl 1-(2-adamantylcarbamoyl)piperidin-4-ylcarbamate], the half-inhibitory concentration (IC50) in assay [1] was in the range of 100 to 1000 nM.

In the case of `CC(C)(C)OC(=O)N[C@H]1CCN(C(=O)NC2C3CC4CC(C3)CC2C4)C1` (stereo partly drawn) [Example 47, (S)-tert-butyl 1-(2-adamantylcarbamoyl)pyrrolidin-3-ylcarbamate], in assay [1], the half-maximal inhibitory concentration (IC50) fell in the range of 100 to 1000 nM. On the same count and under the same terms, the result for `COC(=O)N[C@@H]1CCN(C(=O)NC2C3CC4CC(C3)CC2C4)C1` (stereo partly drawn) [Example 48, (R)-methyl 1-(2-adamantylcarbamoyl)pyrrolidin-3-ylcarbamate] reads 100 to 1000 nM; that for `CC(C)(C)OC(=O)NC1CN(C(=O)NC2C3CC4CC(C3)CC2C4)C1` (stereo not drawn) [Example 51, tert-butyl 1-(2-adamantylcarbamoyl)azetidin-3-ylcarbamate], below 100 nM; that for `CC(C)(C)OC(=O)N[C@@H]1CCN(C(=O)NC2C3CC4CC(C3)CC2C4)C1` (stereo partly drawn) [Example 46, (R)-tert-butyl 1-(2-adamantylcarbamoyl)pyrrolidin-3-ylcarbamate], below 100 nM.

Consider `CC(C)(C)OC(=O)N[C@H]1CCCN(C(=O)NC2C3CC4CC(C3)CC2C4)C1` (stereo partly drawn) [Example 57, (S)-tert-butyl 1-(2-adamantylcarbamoyl)piperidin-3-ylcarbamate], for which the 50% inhibitory concentration (IC50) in assay [1] was below 100 nM. With `CC(C)(C)OC(=O)NCC1CN(C(=O)OC2C3CC4CC(C3)CC2C4)C1` (stereo not drawn) [Example 1, 2-adamantyl 3-((tert-butoxycarbonylamino)methyl)azetidine-1-carboxylate], the IC50 in assay [1] was below 100 nM. `CC1(NC(=O)OC(C)(C)C)CCN(C(=O)OC2C3CC4CC2CC(C(N)=O)(C4)C3)C1` (single isomer, unassigned) [Example 22 Isomer 2.2, (trans-1-carbamoyl-4-adamantyl) 3-(tert-butoxycarbonylamino)-3-methylpyrrolidine-1-carboxylate]: the “Biological Test Example 2 Average % inhibition at 100 nm” value at human 11β-HSD1 [2] worked out at 82.7%. The IC50 at human 11β-HSD1 [3] is below 100 nM.

`CC(C)(C)OC(=O)NC1(Cc2ccccc2)CCN(C(=O)OC2C3CC4CC2CC(C(N)=O)(C4)C3)C1` (single isomer, unassigned) [Example 29 Isomer 2, (trans-1-carbamoyl-4-adamantyl) 3-benzyl-3-(tert-butoxycarbonylamino)pyrrolidine-1-carboxylate]: the “Biological Test Example 2 Average % inhibition at 100 nm” value at human 11β-HSD1 [2] worked out at 90.8%. The same compound yielded an IC50 against human 11β-HSD1 [3] below 100 nM. For `N#Cc1ccc(N[C@@H]2CCN(C(=O)OC3C4CC5CC3CC(C(=O)NC3CCCCC3)(C5)C4)C2)nc1` (single isomer, unassigned) [Example 117 Isomer 2] the same measures were 63.1% and below 100 nM. With `CC1(NC(=O)OC(C)(C)C)CCN(C(=O)OC2C3CC4CC2CC(C(N)=O)(C4)C3)C1` (single isomer, unassigned) [Example 22 Isomer 1, (cis-1-carbamoyl-4-adamantyl) 3-(tert-butoxycarbonylamino)-3-methylpyrrolidine-1-carboxylate], at human 11β-HSD1 [2], the “Biological Test Example 2 Average % inhibition at 100 nm” value worked out at 15.7%. Further, the concentration for half-maximal inhibition (IC50) against human 11β-HSD1 [3] was above 100 nM.

As to `CC(C)(C)OC(=O)N1CCCC12CCN(C(=O)OC1C3CC4CC1CC(C(N)=O)(C4)C3)C2` (single isomer, unassigned) [Example 30 Isomer 2, 1-tert-butyl 7-(trans-1-carbamoyl-4-adamantyl) 1,7-diazaspiro[4.4]nonane-1,7-dicarboxylate], the “Biological Test Example 2 Average % inhibition at 100 nm” value on human 11β-HSD1 [2] was determined as 91.3%. The compound also registered a half-inhibitory concentration (IC50) at human 11β-HSD1 [3] below 100 nM.

Take `CC(C)(C)OC(=O)NCC1CN(C(=O)OC2C3CC4CC2CC(C(N)=O)(C4)C3)C1` (single isomer, unassigned) [Example 17 Isomer 2, (trans-1-carbamoyl-4-adamantyl) 3-((tert-butoxycarbonylamino)methyl)azetidine-1-carboxylate]: the “Biological Test Example 2 Average % inhibition at 100 nm” value at human 11β-HSD1 [2] came out at 92.8%. This compound also returned an IC50 against human 11β-HSD1 [3] below 100 nM. For the compound `CC(C)(C)OC(=O)N[C@@H]1CCCN(C(=O)OC2C3CC4CC(C3)CC2C4)C1` (stereo partly drawn) [Example 8, (3R)-(2-adamantyl) 3-(tert-butoxycarbonylamino)piperidine-1-carboxylate], the IC50 in assay [1] was below 100 nM.

Turning to `CC(C)(C)OC(=O)NCC1CN(C(=O)OC2C3CC4CC2CC(C(N)=O)(C4)C3)C1` (single isomer, unassigned) [Example 17 Isomer 1, (cis-1-carbamoyl-4-adamantyl) 3-((tert-butoxycarbonylamino)methyl)azetidine-1-carboxylate], the “Biological Test Example 2 Average % inhibition at 100 nm” value at human 11β-HSD1 [2] was 22.1%. Besides, on human 11β-HSD1 [3], the IC50 is above 100 nM.

For the origin of these results see US8828985B2, “Carbamate and urea inhibitors of 11-beta-hydroxysteroid dehydrogenase 1” (Vitae Pharmaceuticals, Inc., priority 2008, dated 2014).
